The source of these data is patent publication US11840524B2, “4-substituted phenyl-1,3,5-triazine derivatives as modulators of TrK receptors” (ALZECURE PHARMA AB, priority 2018, dated 2023).

For one test, the target named is T1, TrkA (Homo sapiens, UniProt P04629).
T1 construct: expressed in transfected cells; host or cells: U2OS
In words: Cell-based Enzyme Fragment Complementation (EFC) assay, U2OS cells over-expressing TrkA. The settings on record: compound pre-mixed with ligand (NGF), final ligand concentration 10 ng/mL, 3 hours at room temperature, read-out: TrkA potency expressed as EC50. The source says: (§1) A high throughput cell-based screen has been used to identify positive modulators of TrkA, TrkB and TrkC. The screen involves the use of cell-based assay overexpressing TrkA, TrkB or TrkC. The purpose of the assay is to identify compounds that modulate neurotrophin signalling (Forsell et al 2012). The assay can be used in inhibitor mode using a high concentration of ligand, in modulator mode using an intermediate concentration and in agonist mode using a low concentration of ligand.
(§2) The assay uses Enzyme Fragment Complementation (EFC) technique, which is a proximity-based assay. Briefly, cells used in this assay over-express two fusion proteins, i.e. the receptor, which can be one of TrkA, TrkB or TrkC fused to a small peptide of beta-galactosidase and an adaptor protein, i.e. SHC1 (or any other Trk-adaptor protein) fused to the major part of beta-galactosidase. […] The proximity between the small activating peptide on the receptor and the major part of beta-galactosidase on the adaptor protein leads to an active beta-galactosidase enzyme. The activation of the receptor is quantified by measuring the amount of active beta-galactosidase by its conversion of a non-luminescent substrate into a luminescent product.
(§3) U2OS-cells, over-expressing TrkA or TrkB or TrkC, were plated in 96- or 384-well plates and incubated overnight. On the following day, test compound was pre-mixed with ligand (NGF) and the ligand-compound mixture is then added to the cells to yield a final ligand concentration of 10 ng/mL. After 3 hours of incubation at room temperature, the incubation is stopped by the addition of a beta-galactosidase substrate mixture containing detergents. The substrate mixture is incubated for 60 minutes at ambient temperature. The luminescence is thereafter read by the use of a plate reader.

In a further test the target is T2, TrkB (Homo sapiens, UniProt Q16620).
T2 construct: expressed in transfected cells; host or cells: U2OS
Kind of test: Cell-based Enzyme Fragment Complementation (EFC) assay, U2OS cells over-expressing TrkB. The settings on record: compound pre-mixed with ligand, final ligand concentration 10 ng/mL, 3 hours at room temperature, read-out: TrkB potency expressed as EC50.
Excerpt: as §1, §2, §3

In another test the target is T3, TrkC (Homo sapiens, UniProt Q16288).
T3 construct: expressed in transfected cells; host or cells: U2OS
In words: Cell-based Enzyme Fragment Complementation (EFC) assay, U2OS cells over-expressing TrkC. The settings on record: compound pre-mixed with ligand, final ligand concentration 10 ng/mL, 3 hours at room temperature, read-out: TrkC potency expressed as EC50.
Excerpt: as §1, §2
U2OS-cells, over-expressing TrkA or TrkB or TrkC, were plated in 96- or 384-well plates and incubated overnight. […] The luminescence is thereafter read by the use of a plate reader.

In test [1] the test system is ephrin type-B receptor 2 (EphB2). The settings on record: Suzuki et al., FEBS Open Bio 2016; cited from earlier work.

pEC50: −log10 of the molar value.

T2 sequence (Q16620 32-822): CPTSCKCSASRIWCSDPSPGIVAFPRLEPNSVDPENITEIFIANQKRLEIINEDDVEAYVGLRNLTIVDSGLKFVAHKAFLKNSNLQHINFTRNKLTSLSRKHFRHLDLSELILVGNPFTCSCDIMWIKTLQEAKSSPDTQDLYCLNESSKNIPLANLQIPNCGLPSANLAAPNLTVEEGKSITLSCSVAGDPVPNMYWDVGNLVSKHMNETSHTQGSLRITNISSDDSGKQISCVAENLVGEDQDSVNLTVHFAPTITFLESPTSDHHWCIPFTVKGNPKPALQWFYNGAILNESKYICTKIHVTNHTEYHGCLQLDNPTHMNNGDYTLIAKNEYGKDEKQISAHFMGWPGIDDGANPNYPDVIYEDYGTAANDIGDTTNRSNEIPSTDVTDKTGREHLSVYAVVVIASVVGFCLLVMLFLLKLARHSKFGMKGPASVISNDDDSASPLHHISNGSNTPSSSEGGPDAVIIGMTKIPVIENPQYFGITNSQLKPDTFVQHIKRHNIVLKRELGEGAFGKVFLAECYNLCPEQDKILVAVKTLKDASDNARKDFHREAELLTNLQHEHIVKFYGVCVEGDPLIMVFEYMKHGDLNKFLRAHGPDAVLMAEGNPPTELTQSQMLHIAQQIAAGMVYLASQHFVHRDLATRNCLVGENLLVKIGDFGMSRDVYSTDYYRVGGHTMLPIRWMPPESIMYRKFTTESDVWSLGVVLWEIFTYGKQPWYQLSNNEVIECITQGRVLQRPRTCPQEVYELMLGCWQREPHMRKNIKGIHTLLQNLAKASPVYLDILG
T1 sequence (P04629 33-796): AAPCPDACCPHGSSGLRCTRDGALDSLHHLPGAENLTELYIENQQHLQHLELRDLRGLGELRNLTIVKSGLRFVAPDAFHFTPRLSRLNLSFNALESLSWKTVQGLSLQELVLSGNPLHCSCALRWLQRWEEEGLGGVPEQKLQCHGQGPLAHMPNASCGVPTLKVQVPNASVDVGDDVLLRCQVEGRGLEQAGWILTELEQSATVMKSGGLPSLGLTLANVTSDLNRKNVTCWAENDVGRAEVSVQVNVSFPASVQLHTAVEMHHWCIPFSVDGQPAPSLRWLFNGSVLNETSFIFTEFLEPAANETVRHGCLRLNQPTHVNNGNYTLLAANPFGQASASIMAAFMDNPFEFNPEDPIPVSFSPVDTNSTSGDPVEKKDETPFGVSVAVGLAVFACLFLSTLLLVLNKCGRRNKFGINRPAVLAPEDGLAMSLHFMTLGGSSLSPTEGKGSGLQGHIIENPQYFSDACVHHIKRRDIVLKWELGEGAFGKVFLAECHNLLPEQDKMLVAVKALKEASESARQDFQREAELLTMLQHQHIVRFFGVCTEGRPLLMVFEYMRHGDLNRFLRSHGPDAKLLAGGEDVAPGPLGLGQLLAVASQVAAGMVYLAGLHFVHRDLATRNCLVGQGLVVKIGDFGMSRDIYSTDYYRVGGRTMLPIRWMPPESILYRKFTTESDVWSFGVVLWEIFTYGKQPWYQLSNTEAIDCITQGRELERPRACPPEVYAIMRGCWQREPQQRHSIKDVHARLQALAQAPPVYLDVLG
T3 sequence (Q16288 32-839): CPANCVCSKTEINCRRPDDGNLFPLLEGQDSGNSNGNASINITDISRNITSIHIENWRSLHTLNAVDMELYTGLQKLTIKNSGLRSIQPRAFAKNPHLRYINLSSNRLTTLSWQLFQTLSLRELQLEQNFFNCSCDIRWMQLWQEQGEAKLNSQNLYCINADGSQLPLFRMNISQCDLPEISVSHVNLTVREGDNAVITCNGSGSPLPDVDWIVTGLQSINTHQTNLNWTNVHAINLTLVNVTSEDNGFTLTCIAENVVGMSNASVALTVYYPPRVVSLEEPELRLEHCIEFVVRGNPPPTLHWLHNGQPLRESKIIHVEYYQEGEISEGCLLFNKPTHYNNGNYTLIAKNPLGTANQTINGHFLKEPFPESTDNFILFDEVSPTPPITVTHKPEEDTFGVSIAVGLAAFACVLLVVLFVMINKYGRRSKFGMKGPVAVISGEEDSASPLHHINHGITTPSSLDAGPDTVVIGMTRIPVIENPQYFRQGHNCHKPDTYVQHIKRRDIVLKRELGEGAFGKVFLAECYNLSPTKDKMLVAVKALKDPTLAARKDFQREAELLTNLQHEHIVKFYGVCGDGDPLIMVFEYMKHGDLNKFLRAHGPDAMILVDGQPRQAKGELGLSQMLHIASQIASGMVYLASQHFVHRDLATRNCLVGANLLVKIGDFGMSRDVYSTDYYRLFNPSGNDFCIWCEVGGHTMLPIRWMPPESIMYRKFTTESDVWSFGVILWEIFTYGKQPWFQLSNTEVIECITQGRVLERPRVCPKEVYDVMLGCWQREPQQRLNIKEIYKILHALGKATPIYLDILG

In the case of “1-{3-[(4-methyl-1H-imidazol-1-yl)methyl]-4-phenoxyphenyl}-3-(3-methylphenyl)-1,3,5-triazinane-2,4,6-trione+1-{3-[(5-methyl-1H-imidazol-1-yl)methyl]-4-phenoxyphenyl}-3-(3-methylphenyl)-1,3,5-triazinane-2,4,6-trione [Example 11]”, the pEC50 is 6.66 at TrkA and 6.85 at TrkB.
As to `O=c1[nH]c(=O)n(-c2ccc(Oc3ccccc3)c(Cn3cccn3)c2)c(=O)n1-c1ccccc1` [Example 1, 1-{4-phenoxy-3-[(1H-pyrazol-1-yl)methyl]phenyl}-3-phenyl-1,3,5-triazinane-2,4,6-trione], the pEC50 at TrkA was 6.80; on TrkB, 6.70; on TrkC it was 6.92.
The matching figures for `O=c1[nH]c(=O)n(-c2ccc(Oc3ccccc3)c(Cn3ccnc3)c2)c(=O)n1-c1ccccc1` [Example 2, 1-{3-[(1H-imidazol-1-yl)methyl]-4-phenoxyphenyl}-3-phenyl-1,3,5-triazinane-2,4,6-trione]: 6.42, 6.57 and 6.70.
As for `O=c1[nH]c(=O)n(-c2ccc(Oc3ccccc3)c(Cn3cncn3)c2)c(=O)n1-c1ccccc1` [Example 3, 1-{4-phenoxy-3-[(1H-1,2,4-triazol-1-yl)methyl]phenyl}-3-phenyl-1,3,5-triazinane-2,4,6-trione], the figures for the pEC50 at TrkA and on TrkB were 6.28 and 6.09, respectively.
The matching figures for `CCc1ccc(Oc2ccc(-n3c(=O)[nH]c(=O)n(C)c3=O)cc2Cn2cccn2)cc1` [Example 4, 1-[4-(4-ethylphenoxy)-3-[(1H-pyrazol-1-yl)methyl]phenyl]-3-methyl-1,3,5-triazinane-2,4,6-trione]: 5.96 and 5.68.
The like results for `Cn1c(=O)[nH]c(=O)n(-c2ccc(-c3ccccc3)c(Cn3cccn3)c2)c1=O` [Example 5, 1-methyl-3-{2-[(1H-pyrazol-1-yl)methyl]-[1,1′-biphenyl]-4-yl}-1,3,5-triazinane-2,4,6-trione] were, in that order, 5.88 and 4.51.
In the case of `Cc1cccc(-n2c(=O)[nH]c(=O)n(-c3ccc(Oc4ccccc4)c(Cn4ccnc4)c3)c2=O)c1` [Example 6, 1-{3-[(1H-imidazol-1-yl)methyl]-4-phenoxyphenyl}-3-(3-methylphenyl)-1,3,5-triazinane-2,4,6-trione], the results for the pEC50 at TrkA and on TrkB were 6.80 and 6.70, respectively.
For the compound `COc1ccc(-n2c(=O)[nH]c(=O)n(-c3ccc(Oc4ccccc4)c(Cn4ccnc4)c3)c2=O)cc1` [Example 7, 1-{3-[(1H-imidazol-1-yl)methyl]-4-phenoxyphenyl}-3-(4-methoxyphenyl)-1,3,5-triazinane-2,4,6-trione], the pEC50 on TrkA was 6.14; on TrkB it was 6.35.
On to `Cc1cccc(-n2c(=O)[nH]c(=O)n(-c3ccc(Oc4ccc(F)cc4)c(Cn4ccnc4)c3)c2=O)c1` [Example 8, 1-[4-(4-fluorophenoxy)-3-[(1H-imidazol-1-yl)methyl]phenyl]-3-(3-methylphenyl)-1,3,5-triazinane-2,4,6-trione], for which the pEC50 at TrkA was 6.72; on TrkB it was 6.77.
The matching figures for `Cc1cccc(-n2c(=O)[nH]c(=O)n(-c3ccc(Oc4ccccc4)c(OCc4ncc[nH]4)c3)c2=O)c1` [Example 9, 1-{3-[(1H-imidazol-2-yl)methoxy]-4-phenoxyphenyl}-3-(3-methylphenyl)-1,3,5-triazinane-2,4,6-trione]: 6.60 and 6.92.
The matching figures for `Cc1cccc(-n2c(=O)[nH]c(=O)n(-c3ccc(Oc4ccccc4)c(OCc4cnc[nH]4)c3)c2=O)c1` [Example 10, 1-{3-[(1H-imidazol-5-yl)methoxy]-4-phenoxyphenyl}-3-(3-methylphenyl)-1,3,5-triazinane-2,4,6-trione]: 5.78 and 4.92.
The matching figures for `Cc1cccc(-n2c(=O)[nH]c(=O)n(-c3ccc(Oc4ccccc4)c(Cn4cnc(F)c4)c3)c2=O)c1` [Example 12, 1-{3-[(4-fluoro-1H-imidazol-1-yl)methyl]-4-phenoxyphenyl}-3-(3-methylphenyl)-1,3,5-triazinane-2,4,6-trione]: 7.00 and 7.22.
Consider `Cc1cccc(-n2c(=O)[nH]c(=O)n(-c3ccc(Oc4ccccc4)c(-n4cnc(C)c4)c3)c2=O)c1` [Example 13, 1-[3-(4-methyl-1H-imidazol-1-yl)-4-phenoxyphenyl]-3-(3-methylphenyl)-1,3,5-triazinane-2,4,6-trione], for which the results for the pEC50 at TrkA and on TrkB were 6.19 and 6.33, respectively.
The like results for `O=c1[nH]c(=O)n(-c2ccc(Oc3ccccc3)c(Cn3cc(F)cn3)c2)c(=O)n1-c1ccccc1` [Example 14, 1-{3-[(4-fluoro-1H-pyrazol-1-yl)methyl]-4-phenoxyphenyl}-3-phenyl-1,3,5-triazinane-2,4,6-trione] were, in that order, 6.74 and 6.74.
The like results for `Cc1cccc(-n2c(=O)[nH]c(=O)n(-c3ccc(Oc4ccccc4)c(Cn4cc(F)cn4)c3)c2=O)c1` [Example 15, 1-{3-[(4-fluoro-1H-pyrazol-1-yl)methyl]-4-phenoxyphenyl}-3-(3-methylphenyl)-1,3,5-triazinane-2,4,6-trione] were, in that order, 6.92 and 7.05.
As to `CCn1cc(Cc2cc(-n3c(=O)[nH]c(=O)n(-c4ccccc4)c3=O)ccc2Oc2ccccc2)cn1` [Example 16, 1-{3-[(1-ethyl-1H-pyrazol-4-yl)methyl]-4-phenoxyphenyl}-3-phenyl-1,3,5-triazinane-2,4,6-trione], the pEC50 at TrkA was 6.74; at TrkB, 6.77.
For the compound `Cc1cc(-n2c(=O)[nH]c(=O)n(C)c2=O)ccc1Oc1ccc(SC(F)(F)F)cc1` [toltrazuril, 1-methyl-3-(3-methyl-4-{4-[(trifluoromethyl)sulfanyl]phenoxy}phenyl)-1,3,5-triazinane-2,4,6-trione], in test [1], the “inhibition of the binding of β-amyloid oligomers to EphB2” value was 30%.
